Laboratory results: patent publication US20250170141A1, “MRGPRX2 MODULATORS AND RELATED METHODS OF TREATMENT” (Escient Pharmaceuticals, Inc., priority 2023, published 2025)

Molecular target: T1, human MRGPRX2 (Homo sapiens, UniProt Q96LB1)
T1 construct: expressed in transfected cells; host or cells: CHO cells, stably transfected (G418 and Hygromycin B selection)
T1 sequence (Q96LB1 1-330): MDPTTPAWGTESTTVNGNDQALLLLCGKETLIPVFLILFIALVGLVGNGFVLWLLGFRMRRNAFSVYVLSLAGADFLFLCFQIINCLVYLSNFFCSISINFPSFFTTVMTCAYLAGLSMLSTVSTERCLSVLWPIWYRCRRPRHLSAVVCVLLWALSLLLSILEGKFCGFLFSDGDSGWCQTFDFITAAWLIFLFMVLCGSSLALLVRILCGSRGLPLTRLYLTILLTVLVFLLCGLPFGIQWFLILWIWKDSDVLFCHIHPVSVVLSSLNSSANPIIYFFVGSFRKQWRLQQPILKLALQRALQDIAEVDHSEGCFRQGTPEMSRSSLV
Assay: MRGPRX2 activity: IP-One Gq HTRF assay in CHO cells, antagonism versus 0.3 uM Cortistatin-14
Assay type: cell-based
Settings: versus 0.3 uM Cortistatin-14 agonist, CHO cells expressing human MRGPRX2, read-out: MRGPRX2 Antagonist Activity
Method in brief: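 CHO cells stably expressing human MRGPRX2 were treated with a 10-point compound curve (30 uM top, 1:3) plus 0.3 μM Cortistatin-14 in LiCl-containing Tris buffer, pH 8. Incubation was 1 h at 37 °C then 1 h at room temperature; IP-1 was detected by HTRF and IC50 came from the HTRF ratio.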

Row | IC50 [µM] | SMILES
1 | 1 to 2.5 | COc1ccncc1CNC1=NS(=O)(=O)c2cccc(Cc3ccccc3Cl)c2N1 [Compound 12-26, 5-(2-chlorobenzyl)-3-(((4-methoxypyridin-3-yl)methyl)amino)-4H-benzo[e][1,2,4]thiadiazine 1,1-dioxide]
2 | 0.1 to 0.5 | O=C(c1ccccc1Cl)c1cccc2c1NC(NCc1ncccc1F)=NS2(=O)=O [Compound 16-5, (2-chlorophenyl)(3-(((3-fluoropyridin-2-yl)methyl)amino)-1,1-dioxido-4H-benzo[e][1,2,4]thiadiazin-5-yl)methanone]
3 | 0.1 to 0.5 | O=S1(=O)N=C(NCc2ccccc2C(F)(F)F)Nc2c1cc(F)c(F)c2Cc1ccccc1Cl [Compound 4-16, 5-(2-chlorobenzyl)-6,7-difluoro-3-((2-(trifluoromethyl)benzyl)amino)-4H-benzo[e][1,2,4]thiadiazine 1,1-dioxide]
4 | < 0.1 | O=S1(=O)N=C(NCc2ncccc2C(F)(F)F)Nc2c(Cc3ccccc3Cl)cccc21 [Compound 12-29, 5-(2-chlorobenzyl)-3-(((3-(trifluoromethyl)pyridin-2-yl)methyl)amino)-4H-benzo[e][1,2,4]thiadiazine 1,1-dioxide]
5 | < 0.1 | O=S1(=O)N=C(NCc2ccccc2F)Nc2c(Cc3ccccc3F)cccc21 [Compound 6-6, 5-(2-fluorobenzyl)-3-((2-fluorobenzyl)amino)-4H-benzo[e][1,2,4]thiadiazine 1,1-dioxide]
6 | 0.1 to 0.5 | Cc1ccc(Cc2cccc3c2NC(NCc2ccccc2F)=NS3(=O)=O)cc1 [Compound 6-16, 3-((2-fluorobenzyl)amino)-5-(4-methylbenzyl)-4H-benzo[e][1,2,4]thiadiazine 1,1-dioxide]

More lines, now with the values behind:

Row | SMILES | IC50 [µM]
7 | COc1ccccc1C(C)c1c(F)ccc2c1NC(NCc1cccc(F)c1)=NS2(=O)=O (centres unmarked) [Compound 22-26, 6-fluoro-3-((3-fluorobenzyl)amino)-5-(1-(2-methoxyphenyl)ethyl)-4H-benzo[e][1,2,4]thiadiazine 1,1-dioxide] | < 0.1
8 | CC(c1c(F)ccc2c1NC(NCc1cccc(F)c1)=NS2(=O)=O)c1c[nH]c2ccccc12 (centres unmarked) [Compound 22-18, 5-(1-(1H-indol-3-yl)ethyl)-6-fluoro-3-((3-fluorobenzyl)amino)-4H-benzo[e][1,2,4]thiadiazine 1,1-dioxide] | 0.1 to 0.5
9 | O=S1(=O)N=C(NCc2ccc(F)cc2)Nc2c1cc(F)c(F)c2Cc1ccccc1Cl [Compound 4-13, 5-(2-chlorobenzyl)-6,7-difluoro-3-((4-fluorobenzyl)amino)-4H-benzo[e][1,2,4]thiadiazine 1,1-dioxide] | 0.501 to 1
10 | O=S1(=O)N=C(NCc2ncccc2F)Nc2c(Oc3ccccc3Cl)c(Cl)cc(F)c21 [Compound 1-42, 6-chloro-5-(2-chlorophenoxy)-8-fluoro-3-(((3-fluoropyridin-2-yl)methyl)amino)-4H-benzo[e][1,2,4]thiadiazine 1,1-dioxide] | 0.1 to 0.5
11 | CC(c1ccccc1F)c1c(F)ccc2c1NC(NCc1cccc(F)n1)=NS2(=O)=O (centres unmarked) [Compound 9-5, 6-fluoro-5-(1-(2-fluorophenyl)ethyl)-3-(((6-fluoropyridin-2-yl)methyl)amino)-4H-benzo[e][1,2,4]thiadiazine 1,1-dioxide] | < 0.1
12 | CC(c1cccc(N(C)C)c1)c1c(F)ccc2c1NC(NCc1cccc(F)c1)=NS2(=O)=O (centres unmarked) [Compound 22-23, 5-(1-(3-(dimethylamino)phenyl)ethyl)-6-fluoro-3-((3-fluorobenzyl)amino)-4H-benzo[e][1,2,4]thiadiazine 1,1-dioxide] | 0.1 to 0.5
13 | CC(c1ccccc1Cl)c1c(F)ccc2c1NC(NCc1ncccc1F)=NS2(=O)=O (centres unmarked) [Compound 8-1, 5-(1-(2-chlorophenyl)ethyl)-6-fluoro-3-(((3-fluoropyridin-2-yl)methyl)amino)-4H-benzo[e][1,2,4]thiadiazine 1,1-dioxide] | < 0.1
14 | Cc1c(F)cccc1CNC1=NS(=O)(=O)c2ccc(F)c(C(C)c3cccc(Cl)c3Cl)c2N1 (centres unmarked) [Compound 8-3, 5-(1-(2,3-dichlorophenyl)ethyl)-6-fluoro-3-((3-fluoro-2-methylbenzyl)amino)-4H-benzo[e][1,2,4]thiadiazine 1,1-dioxide] | < 0.1
